According to patent publication US20250134878A1, “COMBINATION OF CHEK1 INHIBITOR AND TOP1 INHIBITOR FOR TREATING COLORECTAL CANCER” (Genome Research Limited, priority 2022, published 2025):
pIC50: −log10 of the molar value. “And” between values parts separate entries of the source, which are not always exact repeats. Equal entries are not always repeated. Where two headings read alike, the source gives them in different places. Values belong to the molecule of their own block, whether it stands above or below them.

Columns and labels:
[1] = tested on: colon (n=45) cancer cell lines; assay: anchored 2x7 combination screen, viability by CellTiter-Glo after 72 h, synergy over Bliss
Experimental: To screen efficiently, the inventors used a 2×7 concentration matrix, or “anchored” approach. The inventors screened each anchor compound at two optimised concentrations and a discontinuous 1,000-fold (7-point) dose-response curve of the library compound. Viability was read out after 72 h of drug treatment using CellTiter-Glo and drug responses for single agent and combination responses were fitted.
The synergy and activity rate also subset to MSS (n=30) and MSI (n=15), or KRAS mut (n=24) and KRAS wt (n=21) cell lines.
Activity in MSI (n=15) and MSS (n=30) cell lines was compared (FIG. 1a). KRAS mutant (n=24) cell lines were investigated (n=8, TP53 wild type; n=16 TP53 mutant) (FIG. 1b). […] Plotted are averaged combination responses. Box and whisker plots show the median and interquartile range. A two-sided Welch's t-test was performed (*=p≤0.05, **=p≤0.01, ***=p≤0.001, ****=p≤0.0001).
Viability was read out after 72 h of drug treatment using CellTiter-Glo and drug responses for single agent and combination responses were fitted.

[2] = tested on: SW620, SW837, SNU-81 or LS-1034 cells; assay: CHEK specificity: camptothecin anchor plus CHEK inhibitor libraries, CellTiter-Glo viability after 96 h; type: cell-based; conditions: in combination with camptothecin (anchor, 0.025 µM), 4 cell lines
Experimental: After 96 h of drug treatment viability was measured with CellTiter-Glo® 2.0 (CTG; Promega). Drug response curves were fitted and combination response metrics ΔEmax and ΔIC50 calculated by comparing the observed combination response with the expected (Bliss) combination response. The higher the ΔEmax and ΔIC50, the stronger the combination response. SW620, SW837, SNU-81 and LS-1034 are all MSS and KRAS-TP53 double mutant colon cancer cell lines.

[3] = target: T1, CHEK1 (Homo sapiens, UniProt O14757); conditions: assay format not stated; read-out: IC50 (CHEK1 inhibitor); cited from earlier work
T1 sequence (O14757 1-476): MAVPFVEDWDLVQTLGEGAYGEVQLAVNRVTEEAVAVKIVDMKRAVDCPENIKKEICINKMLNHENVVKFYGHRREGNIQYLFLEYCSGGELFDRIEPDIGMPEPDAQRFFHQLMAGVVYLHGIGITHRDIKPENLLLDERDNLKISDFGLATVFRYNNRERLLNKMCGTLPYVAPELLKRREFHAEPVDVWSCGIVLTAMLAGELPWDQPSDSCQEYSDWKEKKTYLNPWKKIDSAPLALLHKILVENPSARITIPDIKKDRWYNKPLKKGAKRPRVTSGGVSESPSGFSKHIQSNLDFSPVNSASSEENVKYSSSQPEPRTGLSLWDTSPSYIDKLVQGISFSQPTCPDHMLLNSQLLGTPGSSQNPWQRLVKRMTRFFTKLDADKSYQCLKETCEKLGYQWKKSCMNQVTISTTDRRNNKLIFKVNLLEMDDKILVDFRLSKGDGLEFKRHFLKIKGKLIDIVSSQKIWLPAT

[4] = tested on: LoVo cells; conditions: cited from earlier work
[5] = tested on: HT-29 cells; conditions: cited from earlier work
[6] = tested on: colon cancer cell lines (CL-11, SNU-81 and SW837); assay: 7x7 matrix combination screen with SN-38, CellTiter-Glo 72 h, Bliss window and HSA window; type: cell-based; conditions: MSS and KRAS/TP53 double mutant cell lines
Experimental: Viability was measured after 72 h of drug treatment using CellTiter-Glo reagent. Single-agent and combination viability measurements were fitted per cell line and multiple parameters derived including single agent values and a range of synergy scores. […] The “Bliss window” was reported as the highest mean Bliss excess value measured across the 25 possible 3×3 submatrices, or ‘windows’, across the 7×7 dose matrix. […] The “HSA window” was reported as the highest mean HSA excess value measured across the 25 possible 3×3 submatrices, or ‘windows’, across the 7×7 dose matrix.

[7] = tested on: SNU-81 cells; assay: SN-38 dose response after siRNA transfection, viability (CTG); type: cell-based; conditions: for pIC50: SN-38 added after 30 h, viability 72 h later
Experimental: (§1) For siRNA experiments, SW837 and SNU-81 cells (8,000 and 16,000 cells per well, respectively) were reverse transfected with siRNAs of a non-targeting pool as negative control (siNT; Dharmacon, D-001810-10-5), polo-like kinase 1 (PLK1) pool as positive control (Dharmacon, L-003290-00-0010), CHEK1 pool (Dharmacon, L-003255-00-0005) or four individual CHEK1 siRNAs (LQ-003255-00-0005), and CHEK2 pool (Dharmacon, L-003256-00-0005) using lipofectamine RNAiMax (Thermofisher). After 30 h, 0.025 µM or a dose range of 0.001-9 µM SN-38 or DMSO were added and viability was measured 72 h later with CTG. Signal was normalised to siNT+DMSO controls. […] FIGS. 4a and 4c confirm that the effect of the TOP1+CHEK combination is primarily mediated through inhibition of CHEK1.
(§2) SW837 and SNU-81 cells (8,000 and 16,000 cells per well, respectively) were reverse transfected with siRNAs of a non-targeting pool as negative control (siNT; Dharmacon, D-001810-10-5), CHEK1 pool (Dharmacon, L-003255-00-0005) or CHEK2 pool (Dharmacon, L-003256-00-0005) using lipofectamine RNAiMax (Thermofisher). After 30 h, a dose range of 0.001-9 µM SN-38 or DMSO were added and viability was measured 72 h later with CTG. Signal was normalised to siNT+DMSO controls. Mean±SD of three independent replicates.

[8] = tested on: SW837 cells; assay: as above; type: cell-based; conditions: for pIC50: SN-38 added after 30 h, viability 72 h later
Experimental: as §1, §2

[9] = target: ataxia telangiectasia and Rad3 related (ATR) kinase (Homo sapiens, UniProt Q13535); conditions: cited from earlier work
Sequence of ataxia telangiectasia and Rad3 related (ATR) kinase (Q13535 whole entry): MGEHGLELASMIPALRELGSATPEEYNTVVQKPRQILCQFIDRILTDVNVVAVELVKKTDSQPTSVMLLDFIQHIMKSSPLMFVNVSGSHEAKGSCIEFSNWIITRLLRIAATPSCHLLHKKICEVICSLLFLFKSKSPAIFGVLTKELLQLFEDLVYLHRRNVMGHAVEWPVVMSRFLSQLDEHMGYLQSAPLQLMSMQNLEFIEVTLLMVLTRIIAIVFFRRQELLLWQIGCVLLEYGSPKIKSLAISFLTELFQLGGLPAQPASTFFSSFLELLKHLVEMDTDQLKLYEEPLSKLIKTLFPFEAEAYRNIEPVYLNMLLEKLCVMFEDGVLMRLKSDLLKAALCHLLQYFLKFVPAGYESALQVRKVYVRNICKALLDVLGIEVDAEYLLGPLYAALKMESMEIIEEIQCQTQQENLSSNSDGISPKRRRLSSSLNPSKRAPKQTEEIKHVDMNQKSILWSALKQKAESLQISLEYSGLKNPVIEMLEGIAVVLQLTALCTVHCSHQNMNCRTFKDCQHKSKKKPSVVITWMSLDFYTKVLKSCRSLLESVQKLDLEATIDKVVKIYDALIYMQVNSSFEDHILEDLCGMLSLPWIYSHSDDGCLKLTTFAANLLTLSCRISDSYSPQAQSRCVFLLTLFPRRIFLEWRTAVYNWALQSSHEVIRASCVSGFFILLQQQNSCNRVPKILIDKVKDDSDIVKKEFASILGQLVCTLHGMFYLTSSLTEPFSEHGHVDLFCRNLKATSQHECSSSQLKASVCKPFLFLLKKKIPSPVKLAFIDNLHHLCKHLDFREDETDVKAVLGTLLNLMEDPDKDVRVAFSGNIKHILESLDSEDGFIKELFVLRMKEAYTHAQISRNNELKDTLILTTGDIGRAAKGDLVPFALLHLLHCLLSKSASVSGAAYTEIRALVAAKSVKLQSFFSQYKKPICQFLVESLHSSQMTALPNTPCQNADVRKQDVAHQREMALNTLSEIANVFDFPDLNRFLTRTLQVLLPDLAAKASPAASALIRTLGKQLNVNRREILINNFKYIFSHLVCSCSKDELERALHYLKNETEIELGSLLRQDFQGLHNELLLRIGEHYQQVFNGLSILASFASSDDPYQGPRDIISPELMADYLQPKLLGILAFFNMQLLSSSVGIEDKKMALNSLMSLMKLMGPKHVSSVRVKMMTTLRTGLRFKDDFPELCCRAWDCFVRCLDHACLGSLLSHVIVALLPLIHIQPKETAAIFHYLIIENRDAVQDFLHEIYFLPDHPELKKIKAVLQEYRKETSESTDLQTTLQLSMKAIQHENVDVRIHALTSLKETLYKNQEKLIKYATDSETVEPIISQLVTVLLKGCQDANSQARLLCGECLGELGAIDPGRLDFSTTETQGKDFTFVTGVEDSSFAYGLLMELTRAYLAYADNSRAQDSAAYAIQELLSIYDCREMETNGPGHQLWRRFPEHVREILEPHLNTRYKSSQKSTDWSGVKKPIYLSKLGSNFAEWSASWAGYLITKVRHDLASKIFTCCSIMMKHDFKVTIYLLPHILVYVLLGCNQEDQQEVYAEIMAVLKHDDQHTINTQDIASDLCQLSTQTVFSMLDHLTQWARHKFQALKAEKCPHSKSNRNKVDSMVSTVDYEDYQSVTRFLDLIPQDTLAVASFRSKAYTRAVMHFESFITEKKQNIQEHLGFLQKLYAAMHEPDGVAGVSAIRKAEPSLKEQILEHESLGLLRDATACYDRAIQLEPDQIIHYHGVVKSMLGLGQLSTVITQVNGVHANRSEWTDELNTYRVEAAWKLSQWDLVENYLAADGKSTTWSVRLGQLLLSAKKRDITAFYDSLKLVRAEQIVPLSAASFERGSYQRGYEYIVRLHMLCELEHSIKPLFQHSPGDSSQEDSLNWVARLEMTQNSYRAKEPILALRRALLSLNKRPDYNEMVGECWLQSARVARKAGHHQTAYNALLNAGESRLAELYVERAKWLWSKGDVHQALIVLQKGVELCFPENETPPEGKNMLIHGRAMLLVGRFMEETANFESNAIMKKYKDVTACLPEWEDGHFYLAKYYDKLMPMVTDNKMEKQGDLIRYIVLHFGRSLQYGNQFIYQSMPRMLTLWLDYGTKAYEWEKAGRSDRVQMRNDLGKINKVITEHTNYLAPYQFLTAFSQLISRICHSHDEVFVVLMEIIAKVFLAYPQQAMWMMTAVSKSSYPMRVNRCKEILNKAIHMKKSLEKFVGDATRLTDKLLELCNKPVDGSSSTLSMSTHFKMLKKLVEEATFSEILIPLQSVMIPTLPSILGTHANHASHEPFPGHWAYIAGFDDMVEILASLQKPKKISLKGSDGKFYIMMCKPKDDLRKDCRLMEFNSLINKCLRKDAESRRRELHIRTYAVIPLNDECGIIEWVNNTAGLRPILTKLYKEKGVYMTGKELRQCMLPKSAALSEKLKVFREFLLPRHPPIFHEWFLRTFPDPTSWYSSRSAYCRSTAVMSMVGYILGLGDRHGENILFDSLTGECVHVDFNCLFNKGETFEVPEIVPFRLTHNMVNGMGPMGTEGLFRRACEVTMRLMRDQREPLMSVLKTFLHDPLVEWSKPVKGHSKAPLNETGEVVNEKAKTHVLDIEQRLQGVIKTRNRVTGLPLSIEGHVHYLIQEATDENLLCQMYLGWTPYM
Sequence of ataxia telangiectasia and Rad3 related (ATR) kinase (Q8WXE1 whole entry partner): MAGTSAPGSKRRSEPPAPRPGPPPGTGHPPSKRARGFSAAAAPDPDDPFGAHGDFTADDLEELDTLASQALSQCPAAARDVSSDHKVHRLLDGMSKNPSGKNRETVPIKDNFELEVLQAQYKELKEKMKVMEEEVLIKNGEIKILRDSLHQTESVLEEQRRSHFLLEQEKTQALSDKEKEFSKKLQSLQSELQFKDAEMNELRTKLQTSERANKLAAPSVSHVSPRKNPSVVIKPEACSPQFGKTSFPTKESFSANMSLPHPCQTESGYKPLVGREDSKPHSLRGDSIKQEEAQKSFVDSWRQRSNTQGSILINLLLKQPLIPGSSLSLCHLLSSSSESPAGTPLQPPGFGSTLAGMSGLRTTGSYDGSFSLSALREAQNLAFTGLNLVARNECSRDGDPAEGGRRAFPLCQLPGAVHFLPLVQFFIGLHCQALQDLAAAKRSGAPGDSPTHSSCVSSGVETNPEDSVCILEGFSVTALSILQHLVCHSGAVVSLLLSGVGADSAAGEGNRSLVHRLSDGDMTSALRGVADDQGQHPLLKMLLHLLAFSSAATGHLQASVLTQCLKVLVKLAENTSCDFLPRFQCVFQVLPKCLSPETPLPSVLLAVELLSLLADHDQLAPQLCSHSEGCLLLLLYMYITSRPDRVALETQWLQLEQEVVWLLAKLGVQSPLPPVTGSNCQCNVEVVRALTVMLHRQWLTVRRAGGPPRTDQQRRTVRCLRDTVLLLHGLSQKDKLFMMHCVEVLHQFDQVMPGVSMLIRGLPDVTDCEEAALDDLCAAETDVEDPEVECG

[10] = tested on: ATR-driven phosphorylated CHEK1 (P-CHEK1) phosphorylation; conditions: cell-free assay; cited from earlier work
[11] = Phase 1 clinical trials; cited from earlier work

SMILES: NC(=O)Nc1cc(-c2cccc(F)c2)sc1C(=O)N[C@H]1CCCNC1 [AZD7762, (S)-5-(3-Fluorophenyl)-N-(piperidin-3-yl)-3-ureidothiophene-2-carboxamide]
synergy and activity rate in combination with 5-FU (DNA antimetab.) ([1]; AZD7762 = Anchor): 26%
synergy and activity rate in combination with Oxaliplatin (DNA alkyl.) ([1]; AZD7762 = Anchor): 0%
synergy and activity rate in combination with Vinorelbine (Microtub.) ([1]; AZD7762 = Anchor): 0%
synergy and activity rate in combination with 5-FU (DNA antimetab.) ([1]; AZD7762 = Library): 28%
synergy and activity rate in combination with Oxaliplatin (DNA alkyl.) ([1]; AZD7762 = Library): 2%
synergy and activity rate in combination with Vinorelbine (Microtub.) ([1]; AZD7762 = Library): 4%

SMILES: COc1cc2nc(-c3cc(F)ccc3O)nc(N[C@@H]3CNC[C@H]3C(C)(C)O)c2cc1OC [CCT241533]
median ΔEmax (shift in efficacy over Bliss) [2]: did not

SMILES: N[C@@H]1CCCN(c2c(Br)cnc3[nH]cc(NC(=O)C4CC4)c23)C1 [GDC-0575, N-[4-[(3R)-3-amino-1-piperidyl]-5-bromo-1H-pyrrolo[2,3-b]pyridin-3-yl]cyclopropanecarboxamide]
pIC50 [3]: 8.92

SMILES: CCc1c2c(nc3ccc(OC(=O)N4CCC(N5CCCCC5)CC4)cc13)-c1cc3c(c(=O)n1C2)COC(=O)[C@]3(O)CC [Irinotecan, [(19S)-10,19-diethyl-19-hydroxy-14,18-dioxo-17-oxa-3,13-diazapentacyclo[11.8.0.0^2.11.0^4.9.0^15,20]henicosa-1 (21),2,4(9),5,7,10,15(20)-heptaen-7-yl] 4-(1-piperidyl) piperidine-1-carboxylate]
pIC50 [4]: 4.80
pIC50 [5]: 5.29

SMILES: Cn1cc(-c2cnn3c(N)c(Br)c([C@@H]4CCCNC4)nc23)cn1 [MK-8776, 6-bromo-3-(1-methyl-1H-pyrazol-4-yl)-5-[(3R)-piperidin-3-yl]pyrazolo[1,5-a]pyrimidin-7-amine]
synergy (Bliss window and HSA window) in combination with SN-38 [6]: high

SMILES: COc1cccc(OCCCN)c1-c1cc(Nc2cnc(C#N)cn2)n[nH]1 [Prexasertib, 5-[[5-[2-(3-aminopropoxy)-6-methoxyphenyl]-1H-pyrazol-3-yl]amino]pyrazine-2-carbonitrile]
synergy (Bliss window and HSA window) in combination with SN-38 [6]: high

SMILES: C[C@H](CN(C)C)Oc1nc(Nc2cc3cccc(Cl)c3cn2)cnc1C#N [SAR-020106, 5-(8-chloroisoquinolin-3-ylamino)-3-((R)-1-(dimethylamino)propan-2-yloxy) pyrazine-2-carbonitrile]
synergy (Bliss window and HSA window) in combination with SN-38 [6]: high

pIC50 ([7]; CHEK1 siRNA pool, read-out: IC50 in SNU-81, siCHEK1): 7.07 and 7.08
pIC50 ([7]; CHEK2 siRNA pool, read-out: IC50 in SNU-81, siCHEK2): 6.15
shift in IC50 of SN-38 on addition of siCHEK1 ([7]; SNU-81, siCHEK1 vs siNT): 7.2 fold
pIC50 ([7]; non-targeting siRNA pool, read-out: IC50 in SNU-81, siNT): 6.21
pIC50 ([8]; CHEK1 siRNA pool, read-out: IC50 in SW837, siCHEK1): 9.15
pIC50 ([8]; CHEK2 siRNA pool, read-out: IC50 in SW837, siCHEK2): 7.17
pIC50 ([8]; Homo sapiens, SW837, CHEK1 siRNA pool, read-out: IC50 in SW837, siCHEK1): 9.16
pIC50 ([8]; Homo sapiens, SW837, CHEK2 siRNA pool, read-out: IC50 in SW837, siCHEK2): 7.18
pIC50 ([8]; Homo sapiens, SW837, non-targeting siRNA pool, read-out: IC50 in SW837, siNT): 7.07
shift in IC50 of SN-38 on addition of siCHEK1 ([8]; SW837, siCHEK1 vs siNT): 120 fold
pIC50 ([8]; non-targeting siRNA pool, read-out: IC50 in SW837, siNT): 7.08
SMILES: CCc1c2c(nc3ccc(O)cc13)-c1cc3c(c(=O)n1C2)COC(=O)[C@]3(O)CC [SN-38, (19S)-10,19-diethyl-7,19-dihydroxy-17-oxa-3,13-diazapentacyclo[11.8.0.0^2.11.0^4.9.0^15,20]henicosa-1(21),2,4(9),5,7,10,15(20)-heptaene-14,18-dione]

SMILES: Nc1nn2cc(F)cnc2c1C(=O)Nc1cncc(F)c1N1CCC(C(=O)N2CCN(C3COC3)CC2)CC1 [VX-803, 2-amino-6-fluoro-N-[5-fluoro-4-[4-[4-(oxetan-3-yl)piperazine-1-carbonyl]-1-piperidyl]-3-pyridyl]pyrazolo[1,5-a]pyrimidine-3-carboxamide]
Ki ATR kinase [9]: < 0.15 nM
pIC50 [10]: 8.10

SMILES: Cc1cnc(NC(=O)Nc2cc(Br)c(C)cc2OC[C@@H]2CNCCO2)cn1 [rabusertib, 1-[5-bromo-4-methyl-2-[[(2S)-morpholin-2-yl]methoxy]phenyl]-3-(5-methylpyrazin-2-yl) urea]
synergy (Bliss window and HSA window) in combination with SN-38 [6]: high
safety profile [11]: acceptable safety profile
